Source: patent US20150065575A1, “S100A8/A9 as a Diagnostic Marker and a Therapeutic Target” (Sloan-Kettering Institute for Cancer Research, priority 2012, published 2015)

Tests used:
PMN = details: similar potencies for both; cited from earlier work
[1] = system: LM2 and CN34LM1 lung metastatic human breast cancer cell lines; experiment: Preclinical trial of AC chemotherapy and CXCR2 antagonist in orthotopic lung metastatic breast cancer xenografts; assay type: in vivo, mice
Method: Data represent average expression±SEM. n=10-13 mice per group. P values were determined by Student's t-test. *p=0.02, **p=0.007.
Data are average foci per field of view (FOV)±SEM. n=5-10 mice per group. Whiskers represent minimum and maximum values. P values were determined by two-tailed Wilcoxon rank-sum test.
Tumor vessel characteristics and lung metastatic foci size and number were quantified using Metamorph software (Molecular Devices) as previously described (DeNardo et al., 2009; Gupta et al., 2007). In brief, 10 random images at 20× magnification were taken per tumor section stained with CD34, MECA32 or Von Willebrand factor by immunohistochemistry. Images were thresholded, stained area was calculated by counting objects per field and vessel characteristics were analyzed using Metamorph measurement module. For quantitating lung metastatic foci area and number, 8-12 random images at 20× magnification were taken per lung section stained with vimentin by immunohistochemistry. A minimum of 5 sections was analyzed per animal across different depths of the tissue. For quantitation, images were thresholded and number of metastatic foci determined. Metastatic foci was considered if they contained more than 5 cells. Foci were counted and analyzed using Metamorph measurement module. […]

SMILES	CXCL8- and CXCL1-mediated PMN chemotaxis (PMN)	lung metastatic burden ([1]; CXCR2 inhibitor combined with AC chemotherapy)	S100A9 expressing cells (immunostaining) ([1]; CXCR2 inhibitor/chemotherapy treatment)
C[C@@H](C(N)=O)c1ccc(OS(=O)(=O)C(F)(F)F)cc1 [4-[(1R)-2-amino-1-methyl-2-oxoethyl]phenyl trifluoromethane sulfonate]	inhibit	–	–
N#Cc1ccc(NC(=O)Nc2ccccc2Br)c2n[nH]nc12 [CXCR2 inhibitor]	–	markedly reduced	significant reduction
